Here are results for 19 compounds from PubChem BioAssay AID540323 (Johns Hopkins Ion Channel Center, 2011).

Activity calls are given as the source filed them.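 The calls were made as follows: active = peak hERG channel inhibition above 30% at some tested dose, together with a fitted dose response curve; inactive = no hERG inhibition at any dose, or no curve.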

Voltage-gated inwardly rectifying potassium channel KCNH2 (Homo sapiens), sequence (Q12809 whole entry, looked up): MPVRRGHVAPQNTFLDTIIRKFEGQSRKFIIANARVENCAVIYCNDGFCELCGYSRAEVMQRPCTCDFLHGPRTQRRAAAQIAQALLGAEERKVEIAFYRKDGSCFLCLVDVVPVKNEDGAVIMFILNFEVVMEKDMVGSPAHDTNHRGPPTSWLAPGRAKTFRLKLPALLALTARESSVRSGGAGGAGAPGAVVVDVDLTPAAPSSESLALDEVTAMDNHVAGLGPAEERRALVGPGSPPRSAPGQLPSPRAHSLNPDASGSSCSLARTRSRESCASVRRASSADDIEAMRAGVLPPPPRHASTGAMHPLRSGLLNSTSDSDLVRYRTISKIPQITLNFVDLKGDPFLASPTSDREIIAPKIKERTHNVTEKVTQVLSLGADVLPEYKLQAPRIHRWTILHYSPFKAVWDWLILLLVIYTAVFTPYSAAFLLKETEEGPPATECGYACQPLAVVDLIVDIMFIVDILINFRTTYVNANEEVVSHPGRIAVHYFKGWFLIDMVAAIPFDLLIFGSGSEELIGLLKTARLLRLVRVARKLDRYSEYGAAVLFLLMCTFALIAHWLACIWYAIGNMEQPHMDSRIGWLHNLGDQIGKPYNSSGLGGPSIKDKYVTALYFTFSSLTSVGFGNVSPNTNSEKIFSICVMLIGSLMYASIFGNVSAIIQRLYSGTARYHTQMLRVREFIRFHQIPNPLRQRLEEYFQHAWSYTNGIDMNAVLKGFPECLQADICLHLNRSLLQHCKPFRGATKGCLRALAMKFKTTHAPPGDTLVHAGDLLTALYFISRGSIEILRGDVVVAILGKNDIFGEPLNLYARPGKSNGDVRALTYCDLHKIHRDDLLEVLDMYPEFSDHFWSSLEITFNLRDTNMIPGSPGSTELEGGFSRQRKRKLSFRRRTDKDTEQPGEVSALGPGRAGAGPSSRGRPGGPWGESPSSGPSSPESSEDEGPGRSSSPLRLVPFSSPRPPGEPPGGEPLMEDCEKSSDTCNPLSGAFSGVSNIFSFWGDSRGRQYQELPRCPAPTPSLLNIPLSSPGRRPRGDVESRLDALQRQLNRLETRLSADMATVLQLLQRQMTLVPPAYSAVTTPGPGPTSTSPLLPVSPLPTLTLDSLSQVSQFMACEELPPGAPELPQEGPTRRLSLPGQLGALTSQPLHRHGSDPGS

The first experiment addresses Voltage-gated inwardly rectifying potassium channel KCNH2 (Homo sapiens) (UniProt Q12809). The experiment in a line: KCNH2 potassium channel blockade – FluxOR Tl flux, hERG cells, CRC 2, selectivity assay for KCNK9 inhibitor project, SAR follow-up (AID 540323). The conditions noted are these: hERG-expressing cells, FluxOR thallium flux fluorescence; at 30 µM (top of the series); test wells contain dofetilide at its IC70.
`O=C(Nc1cccc(NC(=O)c2cccc(F)c2)c1)c1ccccc1`: the “fluorescence ratio, lower = inhibition” value was “inactive”. Consider `CC(C1CC2CCC1C2)n1c(C2CCOC2)n[nH]c1=S` (centres undefined), for which the “fluorescence ratio, lower = inhibition” value is “inactive”.

Regarding `COc1cccc(C(=O)Nc2cccc(NC(=O)c3cccc(C)c3)c2)c1`, the “fluorescence ratio, lower = inhibition” value was “inactive”.

With `CCOc1ccccc1NC(=O)c1cccc(NC(=O)C2CCCC2)c1`, the “fluorescence ratio, lower = inhibition” value was “inactive”. Regarding `CN(C)c1ccc(C(=O)Nc2cccc(NC(=O)c3ccccc3)c2)cc1`, the “fluorescence ratio, lower = inhibition” value was “inactive”. Take `O=C(Nc1cccc(NC(=O)c2ccoc2)c1)c1ccccc1`: the “fluorescence ratio, lower = inhibition” value is “inactive”.

On to `O=C(Nc1cccc(NC(=O)c2cccnc2)c1)c1ccccc1`, for which the “fluorescence ratio, lower = inhibition” value is “inactive”. For `CC(C1CC2CCC1C2)n1c(-c2ccccc2Cl)n[nH]c1=S` (centres undefined), the “fluorescence ratio, lower = inhibition” value was “inactive”. The same measure, in the same setting: the value for `COc1ccccc1NC(=O)c1cccc(NC(=O)c2ccccc2OC)c1` was “inactive”; that for `Cc1cccc(C(=O)Nc2cccc(NC(=O)c3ccccc3C(F)(F)F)c2)c1` was “inactive”; that for `Cc1cccc(S(=O)(=O)Nc2cccc(NC(=O)c3ccccc3)c2)c1` was “inactive”. Consider `O=C(Nc1cccc(NC(=O)c2ccccc2)c1)c1ccccc1`, for which the “fluorescence ratio, lower = inhibition” value was “inactive”.

`Cc1cccc(C(=O)Nc2cccc(NC(=O)c3ccccc3C(C)C)c2)c1`: the “fluorescence ratio, lower = inhibition” value is “inactive”. Take `CCOc1ccc(NC(=O)c2cccc(NC(=O)C3CCCC3)c2)cc1`: the “fluorescence ratio, lower = inhibition” value was “inactive”. The same measure, in the same setting: the result for `COc1ccccc1C(=O)Nc1cccc(NC(=O)c2ccccc2OC(F)(F)F)c1` reads “inactive”.

`CCOc1ccccc1NC(=O)c1cccc(NC(=O)c2ccc(C)cc2)c1`: the “fluorescence ratio, lower = inhibition” value was “inactive”.

With `CCOc1ccccc1NC(=O)c1cccc(NC(=O)c2cccc(OC)c2)c1`, the “fluorescence ratio, lower = inhibition” value is “inactive”. Take `CCOc1ccccc1NC(=O)c1cccc(NC(=O)CC2CCCC2)c1`: the “fluorescence ratio, lower = inhibition” value was “inactive”.

The same experiment, now with this note: hERG-expressing cells, FluxOR thallium flux fluorescence; test wells contain dofetilide at its IC70.
By IC50 is commonly meant the concentration needed to halve the response being measured. For the compound `Cc1cccc(C(=O)Nc2cccc(NC(=O)c3cccc(C)c3)c2)c1`, the IC50 was 12.4 µM.
